Measured values from paper PMC7876048, “Mutant-selective degradation by BRAF-targeting PROTACs” (Nature Communications, 2021).

Key:
p-ERK (CAL-12-T cells) = assay: p-ERK inhibition by immunoblot in CAL-12-T cells; assay type: cell-based
Method: (§1) Cells were plated in 6 well dishes (5 × 10^5–8 × 10^5 cells) and allowed to attach overnight. […] The plates were then placed on ice and washed 1x with chilled PBS and lysed in buffer containing 25 mM Tris-HCl [pH 7.4], 0.25% sodium deoxycholate, 150 mM NaCl, 1% Triton X-100, supplemented with protease inhibitors (1x Roche protease inhibitor cocktail) and phosphatase inhibitors (10 mM NaF, 1 mM Na3OV4, and 20 mM β-glycerophosphate). Lysates were then cleared at 21,000 g for 10 min at 4 °C. Protein concentrations of the supernatants were then quantified using a Pierce BCA Protein Assay. 12–40 µg of protein were separated using a gradient (4–20%) Criterion TGX precast gel and transferred unto a nitrocellulose membrane. The membranes were then blocked in 5% non-fat milk in TBST (Tris-buffered Saline with Tween 20) for 1 h before probing with the indicated primary antibody overnight. Membranes were imaged using Bio-Rad Image Lab software using ECL prime detection reagent (GE Healthcare, RPN2232 or ThermoScientific, 34095).
(§2) Western blot data was quantified by using the band feature in Image Lab, and values were averaged and analyzed in GraphPad Prism. DC50 and DMAX values were fitted using a three parameter [inhibitor] versus response and reported directly from the Prism output. Mean ± SD and unpaired t-tests were performed in GraphPad Prism.

[1] = tested on: VBC:PROTAC:BRAF ternary complex (V5-BRAF^V600E vs V5-BRAF^WT, NIH3T3 lysates); assay: Cell lysate based ternary complex (GST-VBC pulldown) assay; assay type: binding; details: 5000 nM SJF-0628
Method: Glutathione sepharose 4B was washed twice with water and then blocked for 1 h at room temperature with 10% BSA in TBST. The beads were then washed again twice with TBST and once with wash buffer (50 mM HEPES pH 7.5, 150 mM NaCl, 1 mM DTT, 0.01% NP40, 5 mM MgCl2, 10% glycerol) and then purified GST-VBC was immobilized for 2 h at 4 °C at 2.5 pmole per μL of beads. The beads were then washed thrice with wash buffer, resuspended and BRAF WT or V600E protein was added at 500 nM per 50 μL reaction with 5 μL of beads. The bead:BRAF mixture was then aliquoted to separate tubes and PROTAC was added at the indicated concentration (PROTACs were intermediately diluted in 50% DMSO) and this was incubated at 4 °C for 2 h. The beads were washed 4 times with 1 mL column of TBST and then eluted with SDS loading buffer.
For experiments in which the input substrate is a whole cell lysate, the sample was prepared as follows: […] of confluent NIH3T3 cells were doxycycline induced overnight, after which the cells were washed with DPBS and lysed using lysis buffer (50 mM Tris-HCl, pH 7.4, 015 M NaCl, 1 mM EDTA,1% NP40, 10% glycerol). The lysate was cleared by centrifugation and then added to the beads as an input substrate, as above.

BRAF V600E = BRAF V600E (Homo sapiens, UniProt P15056, V600E); assay: Elisa kinase inhibition assay (Carna Biosciences); assay type: biochemical; parameters: purchased Carna Biosciences; details: Km ATP, duplicate
BRAF V600E, sequence (P15056 whole entry V600E): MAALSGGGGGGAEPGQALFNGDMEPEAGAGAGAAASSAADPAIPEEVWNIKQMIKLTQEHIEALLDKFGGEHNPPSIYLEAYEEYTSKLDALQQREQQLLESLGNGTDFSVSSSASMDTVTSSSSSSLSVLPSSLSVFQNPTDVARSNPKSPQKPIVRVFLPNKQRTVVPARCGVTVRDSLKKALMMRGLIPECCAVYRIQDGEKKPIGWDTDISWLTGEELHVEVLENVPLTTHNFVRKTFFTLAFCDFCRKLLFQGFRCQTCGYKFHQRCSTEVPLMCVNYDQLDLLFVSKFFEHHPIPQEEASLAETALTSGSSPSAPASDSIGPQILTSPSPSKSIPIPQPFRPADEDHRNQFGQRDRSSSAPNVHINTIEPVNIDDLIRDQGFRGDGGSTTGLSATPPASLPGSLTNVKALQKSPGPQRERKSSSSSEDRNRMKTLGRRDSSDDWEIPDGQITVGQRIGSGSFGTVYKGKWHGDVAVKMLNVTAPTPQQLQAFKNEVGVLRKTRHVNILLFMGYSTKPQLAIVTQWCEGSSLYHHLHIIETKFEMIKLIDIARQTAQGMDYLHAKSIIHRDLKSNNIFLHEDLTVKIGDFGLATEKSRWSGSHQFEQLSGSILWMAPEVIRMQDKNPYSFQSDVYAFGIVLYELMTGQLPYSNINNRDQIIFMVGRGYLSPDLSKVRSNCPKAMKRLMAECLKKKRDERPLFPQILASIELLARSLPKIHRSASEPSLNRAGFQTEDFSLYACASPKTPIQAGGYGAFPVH
Method: Kinase assays were performed by Carna Biosciences by their protocol in duplicate using Km amounts of ATP calculated for each kinase.

[2] = Body weight in SK-MEL-246 efficacy study; assay type: in vivo, mice; details: either dose (50 mg/kg BID, 100 mg/kg QD)
Method: 10 million SK-MEL-246 cells were subcutaneously implanted in female nu/nu mice. The tumor volumes and mice weights were measured twice a week after the implantation. […] All studies were performed in compliance with institutional guidelines under an Institutional Animal Care and Use Committee (IACUC) approved protocol. Investigators were not blinded when assessing the outcome of the in vivo experiments.

BRAF (L597V) = molecular target: T1, BRAF (L597V) (Homo sapiens, UniProt P15056, L597V); assay: Radiolabeled kinase assay (Reaction Biology); assay type: biochemical
T1 construct: purchased Reaction Biology Corps
T1 sequence (P15056 whole entry L597V): as the sequence (P15056 whole entry V600E) above, with L597V, E600V counted along it
Method: (§3) Kinase assays were performed by Reaction Biology Corps by their protocol in duplicate using Km amounts of ATP calculated for each kinase.

BRAF (G469A) = molecular target: T2, BRAF (G469A) (Homo sapiens, UniProt P15056, G469A); assay: Radiolabeled kinase assay (Reaction Biology); assay type: biochemical
T2 construct: purchased Reaction Biology Corps
T2 sequence (P15056 whole entry G469A): as the sequence (P15056 whole entry V600E) above, with G469A, E600V counted along it
Method: as §3

BRAF (G464V) = molecular target: T3, BRAF (G464V) (Homo sapiens, UniProt P15056, G464V); assay: Radiolabeled kinase assay (Reaction Biology); assay type: biochemical
T3 construct: purchased Reaction Biology Corps
T3 sequence (P15056 whole entry G464V): as the sequence (P15056 whole entry V600E) above, with G464V, E600V counted along it
Method: as §3

BRAF (BRAF^WT) = molecular target: T4, BRAF (BRAF^WT) (Homo sapiens, UniProt P15056); assay: Radiolabeled kinase assay (Reaction Biology); assay type: biochemical
T4 construct: purchased Reaction Biology Corps
T4 sequence (P15056 whole entry): as the sequence (P15056 whole entry V600E) above, with E600V counted along it
Method: as §3

[3] = molecular target: T5, BRAF^V600E (A375 xenograft) (Homo sapiens, UniProt P15056, V600E); assay: A375 xenograft study, BRAF degradation in tumor; assay type: in vivo, mice; details: 50 mg/kg or 150 mg/kg i.p. once a day for 3 days, 8 h after final dose
T5 construct: 5 million A375 cells were subcutaneously implanted in female nu/nu mice; endogenous in cells; host or cells: A375 cells as subcutaneous xenograft tumour in female nu/nu mice
T5 sequence (P15056 whole entry V600E): as the sequence (P15056 whole entry V600E) above
Method: 5 million A375 cells were subcutaneously implanted in female nu/nu mice. […] Mice were sacrificed 8 h after the final dose. Tissues were harvested, flash frozen, and lysed in 1X cell lysis buffer (Cell Signaling #9803) supplemented with protease and phosphatase inhibitors. Harvested tumors were disrupted using metal beads in a Tissuelyser. Homogenates were normalized for protein content and analyzed using SDS-PAGE and Western blotting. All studies were performed in compliance with institutional guidelines under an IACUC approved protocol.

[4] = molecular target: T6, BRAF^WT (NCI-H23 cells, K-RAS^G12C) (Homo sapiens, UniProt P15056); assay: BRAF^WT degradation by immunoblot in NCI-H23 cells; assay type: cell-based
T6 construct: endogenous in cells; host or cells: NCI-H23
T6 sequence (P15056 2-766, stated change not applied): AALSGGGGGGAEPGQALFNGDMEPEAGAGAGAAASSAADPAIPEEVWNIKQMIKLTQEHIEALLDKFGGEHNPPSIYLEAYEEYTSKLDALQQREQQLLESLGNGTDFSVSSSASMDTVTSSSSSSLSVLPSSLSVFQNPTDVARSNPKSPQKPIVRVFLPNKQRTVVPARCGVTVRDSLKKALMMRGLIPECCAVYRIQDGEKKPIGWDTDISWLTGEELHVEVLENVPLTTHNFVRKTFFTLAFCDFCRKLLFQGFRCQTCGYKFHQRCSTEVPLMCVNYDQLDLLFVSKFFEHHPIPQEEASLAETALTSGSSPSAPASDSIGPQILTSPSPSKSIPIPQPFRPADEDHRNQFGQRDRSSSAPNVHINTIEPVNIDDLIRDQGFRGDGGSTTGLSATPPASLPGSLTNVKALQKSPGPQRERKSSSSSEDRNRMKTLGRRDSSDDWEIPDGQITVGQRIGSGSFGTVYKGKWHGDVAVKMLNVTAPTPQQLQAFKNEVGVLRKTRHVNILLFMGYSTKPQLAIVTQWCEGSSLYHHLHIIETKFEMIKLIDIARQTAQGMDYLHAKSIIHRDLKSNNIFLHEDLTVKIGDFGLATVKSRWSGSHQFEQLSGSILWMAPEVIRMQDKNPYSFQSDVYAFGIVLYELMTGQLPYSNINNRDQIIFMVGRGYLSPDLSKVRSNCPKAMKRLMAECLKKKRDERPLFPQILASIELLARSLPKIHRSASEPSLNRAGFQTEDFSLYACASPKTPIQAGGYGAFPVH
Method: as §1, §2

[5] = molecular target: T7, BRAF-p61^V600E (SK-MEL-239 C4 cells) (Homo sapiens, UniProt P15056, DEL169-380/V600E); assay: BRAF degradation by immunoblot in SK-MEL-239 C4 cells; assay type: cell-based; details: p61 dimer
T7 construct: endogenous in cells; host or cells: SK-MEL-239 C4; HCC-364 vr1
T7 sequence (P15056 with tags, fused parts or gaps DEL169-380/V600E): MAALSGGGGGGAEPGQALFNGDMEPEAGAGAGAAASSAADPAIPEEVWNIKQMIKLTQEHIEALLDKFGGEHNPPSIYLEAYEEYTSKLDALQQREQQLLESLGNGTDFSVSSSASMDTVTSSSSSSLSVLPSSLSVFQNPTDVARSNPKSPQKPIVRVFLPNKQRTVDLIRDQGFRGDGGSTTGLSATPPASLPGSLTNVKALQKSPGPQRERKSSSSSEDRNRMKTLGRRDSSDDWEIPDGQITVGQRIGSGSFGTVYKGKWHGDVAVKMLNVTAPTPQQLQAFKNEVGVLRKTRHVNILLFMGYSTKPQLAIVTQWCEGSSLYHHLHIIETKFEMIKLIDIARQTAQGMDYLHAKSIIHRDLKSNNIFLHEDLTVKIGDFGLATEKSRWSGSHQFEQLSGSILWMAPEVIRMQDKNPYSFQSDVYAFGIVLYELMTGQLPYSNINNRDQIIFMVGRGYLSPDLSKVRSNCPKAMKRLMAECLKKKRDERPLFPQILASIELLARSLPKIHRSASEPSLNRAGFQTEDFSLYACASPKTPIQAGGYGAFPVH
T7 sequence (P40337 whole entry, stated change not applied, further chain): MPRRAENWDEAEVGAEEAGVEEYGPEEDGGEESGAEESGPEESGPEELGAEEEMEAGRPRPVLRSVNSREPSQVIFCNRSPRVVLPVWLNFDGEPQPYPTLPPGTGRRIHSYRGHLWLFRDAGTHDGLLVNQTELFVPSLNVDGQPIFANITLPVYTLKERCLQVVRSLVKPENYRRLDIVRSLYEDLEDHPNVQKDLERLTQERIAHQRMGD
T7 sequence (Q15370 whole entry partner): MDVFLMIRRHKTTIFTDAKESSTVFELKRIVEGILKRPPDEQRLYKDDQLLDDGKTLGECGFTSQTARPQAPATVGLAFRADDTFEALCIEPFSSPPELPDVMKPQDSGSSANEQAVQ
T7 sequence (Q15369 whole entry partner): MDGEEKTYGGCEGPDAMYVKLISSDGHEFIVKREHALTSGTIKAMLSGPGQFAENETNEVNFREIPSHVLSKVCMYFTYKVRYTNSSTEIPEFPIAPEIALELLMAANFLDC
Method: as §1, §2

[6] = molecular target: T8, BRAF-p61^V600E (SK-MEL-239 C4 cells) (Homo sapiens, UniProt P15056+P40337, DEL169-380/V600E); assay: as above; assay type: cell-based; details: p61 dimer
T8 construct: endogenous in cells; host or cells: SK-MEL-239 C4; HCC-364 vr1
T8 sequence (P15056 with tags, fused parts or gaps DEL169-380/V600E): as the sequence (P15056 with tags, fused parts or gaps DEL169-380/V600E) above
T8 sequence (P40337 whole entry, stated change not applied): as the sequence (P40337 whole entry, stated change not applied, further chain) above
T8 sequence (Q15370 whole entry partner): as the sequence (Q15370 whole entry partner) above
T8 sequence (Q15369 whole entry partner): as the sequence (Q15369 whole entry partner) above
Method: as §1, §2

[7] = tested on: MEK and ERK phosphorylation (SK-MEL-28 cells); assay: MEK and ERK phosphorylation by immunoblot in SK-MEL-28 cells; assay type: cell-based
Method: as §1, §2

[8] = molecular target: T9, V5-tagged BRAF^WT (NIH3T3 cells) (Homo sapiens, UniProt P15056); assay: V5-BRAF degradation by immunoblot in inducible NIH3T3 cells; assay type: cell-based
T9 construct: expressed in transfected cells; host or cells: NIH3T3 (mouse fibroblasts), doxycycline-inducible expression
T9 sequence (P15056 whole entry): as the sequence (P15056 whole entry V600E) above, with E600V counted along it
Method: as §1, §2

For `CCCS(=O)(=O)Nc1ccc(F)c(C(=O)c2c[nH]c3ncc(-c4ccc(N5CCN(CC(=O)NC(C(=O)N6CC(O)CC6C(=O)NCc6ccc(-c7scnc7C)cc6)C(C)(C)C)CC5)cc4)cc23)c1F` (stereo not drawn) [SJF-0628], the “inhibition of p-ERK” value (p-ERK (CAL-12-T cells)) was greater than 70%, the “ternary complex with VHL, BRAF^V600E relative to BRAF^WT” value [1] was ~ 3 fold and the IC50 (BRAF V600E) was 24.4 nM. The body weight loss [2] was “did not observe a significant body weight loss”, the IC50 (BRAF (L597V)) was 16 nM and the IC50 (BRAF (G469A)) was 0.98 nM. For the same compound, the IC50 (BRAF (G464V)) was 9.18 nM, the IC50 (BRAF (BRAF^WT)) was 5.8 nM and the “DMAX, degradation of BRAF in the xenograft” value [3] was greater than 90%. For the same compound, the “BRAF^WT degradation” value ([4]; MRTX849 pre-treatment 2 h) was 20%, the “BRAF^WT degradation” value ([4]; PROTAC alone) was 50% and the DC50 [5] was 72 nM. For the same compound, the Dmax [6] was greater than 80%, the “concentration giving maximal inhibition of MEK and ERK phosphorylation / maximal suppression of p-ERK” value [7] was 10 nM and the “increase in potency of the PROTAC over epimer SJF-0661 (p-ERK suppression)” value [7] was 10 fold. The “PROTAC-mediated BRAF^WT degradation” value ([8]; 1 µM PD0325901 pre-treatment 3 h, SJF-0628 1 μM 20 h) was ~ 80%, the “degradation of BRAF^WT by the PROTAC” value ([8]; 1 µM SCH772984 pre-treatment 3 h, SJF-0628 20 h) was ~ 90% and the “expression of WT RAF family members” value ([8]; doxycycline-inducible V5-BRAF, no pre-treatment) was “spared BRAF^WT, ARAF, and CRAF”.
